*: point of attachment. NHNH2 = NN*
Experiments:
Assay type in all cases: cell-based
A549 cells = experiment: EGFP mRNA delivery, robotic library screening, A549
Procedure, shortened: (§1)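 Transfection used amphiphile at final 2.5, 5 or 10 μM with EGFP mRNA (25 ng/well) for 4 h without serum, then medium with 10% FBS. Plate-reader EGFP signal at 72 h, untreated background removed, mean of triplicates.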

HCT116 cells = experiment: EGFP mRNA delivery, robotic library screening, HCT116
Procedure, shortened: as §1

Hek293 cells = experiment: EGFP mRNA delivery, robotic library screening, Hek293
Procedure, shortened: as §1

[1] = system: Hek293 cells expressing EGFP; experiment: Cas9-RNP delivery against EGFP (gene editing, plate reader), Hek293
Procedure, shortened: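 After 4 h of exposure to RNP/amphiphile complexes, cells received fresh DMEM with 10% FBS. EGFP fluorescence was measured by plate reader 72 h later. Gene editing was expressed as percent reduction in GFP fluorescence relative to untreated cells, after subtracting untreated-control background. Values are triplicate means.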

Ac-RRHK*RLK*RRLK*RL-NH2 (Ac-RRHK(NHNH2)RLK(NHNH2)RRLK(NHNH2)RL-NH2; not fully specified; printed as Ac-RRHK*RLK*RRLK*RL-NH2; also: K*4,K*7,K*11: native or modified lysine (ε-amide to a linker)) [13(Leu-His)]
mean fluorescence intensity (EGFP mRNA) (A549 cells; Dodecanal, 2.5 μM): 2133
mean fluorescence intensity (EGFP mRNA) (A549 cells; Dodecanal, 5 μM): 803
mean fluorescence intensity (EGFP mRNA) (A549 cells; Dodecanal, 10 μM): 170
mean fluorescence intensity (EGFP mRNA) (A549 cells; Myristoleyl, 2.5 μM): 882
mean fluorescence intensity (EGFP mRNA) (A549 cells; Myristoleyl, 5 μM): 370
mean fluorescence intensity (EGFP mRNA) (A549 cells; Myristoleyl, 10 μM): 569
mean fluorescence intensity (EGFP mRNA) (A549 cells; Palmitoleyl, 2.5 μM): 1406
mean fluorescence intensity (EGFP mRNA) (A549 cells; Palmitoleyl, 5 μM): 916
mean fluorescence intensity (EGFP mRNA) (A549 cells; Palmitoleyl, 10 μM): 617
mean fluorescence intensity (EGFP mRNA) (A549 cells; Petroselinyl, 2.5 μM): 1141
mean fluorescence intensity (EGFP mRNA) (A549 cells; Petroselinyl, 5 μM): 437
mean fluorescence intensity (EGFP mRNA) (A549 cells; Petroselinyl, 10 μM): 245
mean fluorescence intensity (EGFP mRNA) (HCT116 cells; Myristoleyl, 2.5 μM): 2385
mean fluorescence intensity (EGFP mRNA) (HCT116 cells; Palmitoleyl, 5 μM): 642
mean fluorescence intensity (EGFP mRNA) (HCT116 cells; Petroselinyl, 5 μM): 428
mean fluorescence intensity (EGFP mRNA) (HCT116 cells; Petroselinyl, 10 μM): 149
mean fluorescence intensity (EGFP mRNA) (Hek293 cells; Palmitoleyl, 2.5 μM): 4730
mean fluorescence intensity (EGFP mRNA) (Hek293 cells; Palmitoleyl, 5 μM): 1141
mean fluorescence intensity (EGFP mRNA) (Hek293 cells; Petroselinyl, 2.5 μM): 629
mean fluorescence intensity (EGFP mRNA) (Hek293 cells; Petroselinyl, 5 μM): −150
mean fluorescence intensity (EGFP mRNA) (Hek293 cells; Petroselinyl, 10 μM): −168
percentage of gene editing, GFP fluorescence intensity decrease (% of reduction) ([1]; Myristoleyl, 10 μM): −16%
percentage of gene editing, GFP fluorescence intensity decrease (% of reduction) ([1]; Oleyl, 10 μM): −4%
percentage of gene editing, GFP fluorescence intensity decrease (% of reduction) ([1]; Palmitoleyl, 5 μM): −8%
percentage of gene editing, GFP fluorescence intensity decrease (% of reduction) ([1]; Palmitoleyl, 10 μM): −33%
percentage of gene editing, GFP fluorescence intensity decrease (% of reduction) ([1]; Palmitoleyl, 15 μM): −39%
percentage of gene editing, GFP fluorescence intensity decrease (% of reduction) ([1]; Petroselinyl, 5 μM): 16%
percentage of gene editing, GFP fluorescence intensity decrease (% of reduction) ([1]; Petroselinyl, 10 μM): 7%
percentage of gene editing, GFP fluorescence intensity decrease (% of reduction) ([1]; Petroselinyl, 15 μM): −32%

Ac-RRLK*RLK*RRLK*RL-NH2 [Peptide 13.3]
mean fluorescence intensity (EGFP mRNA) (A549 cells; Dodecanal, 2.5 μM): 298
mean fluorescence intensity (EGFP mRNA) (A549 cells; Myristoleyl, 5 μM): 170
mean fluorescence intensity (EGFP mRNA) (A549 cells; Myristoleyl, 10 μM): 240
mean fluorescence intensity (EGFP mRNA) (A549 cells; Oleyl, 2.5 μM): 214
mean fluorescence intensity (EGFP mRNA) (A549 cells; Petroselinyl, 2.5 μM): 245
mean fluorescence intensity (EGFP mRNA) (A549 cells; Petroselinyl, 5 μM): 117
mean fluorescence intensity (EGFP mRNA) (A549 cells; Petroselinyl, 10 μM): 107
mean fluorescence intensity (EGFP mRNA) (HCT116 cells; Myristoleyl, 2.5 μM): 2744
mean fluorescence intensity (EGFP mRNA) (HCT116 cells; Palmitoleyl, 2.5 μM): 1623
mean fluorescence intensity (EGFP mRNA) (HCT116 cells; Petroselinyl, 2.5 μM): 1178
mean fluorescence intensity (EGFP mRNA) (HCT116 cells; Petroselinyl, 5 μM): 1100
mean fluorescence intensity (EGFP mRNA) (HCT116 cells; Petroselinyl, 10 μM): 824
mean fluorescence intensity (EGFP mRNA) (Hek293 cells; Dodecanal, 10 μM): 695
mean fluorescence intensity (EGFP mRNA) (Hek293 cells; Myristoleyl, 2.5 μM): 1316
mean fluorescence intensity (EGFP mRNA) (Hek293 cells; Myristoleyl, 5 μM): 1229
mean fluorescence intensity (EGFP mRNA) (Hek293 cells; Myristoleyl, 10 μM): 889
mean fluorescence intensity (EGFP mRNA) (Hek293 cells; Oleyl, 2.5 μM): 1384
mean fluorescence intensity (EGFP mRNA) (Hek293 cells; Oleyl, 5 μM): 853
mean fluorescence intensity (EGFP mRNA) (Hek293 cells; Petroselinyl, 2.5 μM): 768
mean fluorescence intensity (EGFP mRNA) (Hek293 cells; Petroselinyl, 5 μM): 1046
mean fluorescence intensity (EGFP mRNA) (Hek293 cells; Petroselinyl, 10 μM): 964
percentage of gene editing, GFP fluorescence intensity decrease (% of reduction) ([1]; Dodecanal, 5 μM): 18%
percentage of gene editing, GFP fluorescence intensity decrease (% of reduction) ([1]; Dodecanal, 10 μM): −18%
percentage of gene editing, GFP fluorescence intensity decrease (% of reduction) ([1]; Myristoleyl, 5 μM): −12%
percentage of gene editing, GFP fluorescence intensity decrease (% of reduction) ([1]; Myristoleyl, 15 μM): −48%
percentage of gene editing, GFP fluorescence intensity decrease (% of reduction) ([1]; Palmitoleyl, 5 μM): −7%

— US20250304623A1, “PEPTIDES FOR INTRACELLULAR DELIVERY” (UNIVERSIDADE DE SANTIAGO DE COMPOSTELA, priority 2022, published 2025)
